Source: patent US8158606B2, “β-L-2′-deoxynucleosides for the treatment of resistant HBV strains and combination therapies” (priority 2002, dated 2012)
Several values for one entry are separate records, joined by “and”; a condition that tells them apart may be missing. Identical values can stand only once. Counter-ions that a name gives are not always drawn. Like-named read-outs stand apart in the source and are kept apart here.

What was measured:
[1] = Log P study, octanol-1 / phosphate buffer
Description: To 1 mL of this solution, 1 mL of octanol-1 (B) saturated with 0.02 M phosphate buffer solution (A) was added. The resultant mixture was shaken and centrifuged; three samples from each phase was collected and analyzed by HPLC, as shown in Table 10.
The solution was then saturated with octanol-1 (B). To 1 mL of this solution, 1 mL of octanol-1 (B) saturated with 0.02 M phosphate buffer solution (A) was added. The resultant mixture was shaken and centrifuged; three samples from each phase was collected and analyzed by HPLC, as shown in Table 11.

[2] = assay type: physicochemical; conditions: octanol-1 (B) / MilliQ water pH 6.5 (A′), Study 1 and Study 2, listed as L-dC-3′,5′-divalinyl ester hydrochloride
Description: (§1) To 1 mL of this solution, 1 mL of octanol-1 (B) saturated with MilliQ water (A′) was added.
as §1

[3] = Stability study in buffer at pH 7.4, 7.20, 4.5 and 1.2; assay type: physicochemical; conditions: no other compounds detected up to 48 hours
[4] = assay type: in vivo, cynomolgus monkey (Macaca fascicularis)
Text: The drug was quantitated in plasma and urine with a liquid chromatography-mass spectrometry (LC-MS) technique.

[5] = dival-L-dC 10 mg/kg oral
Text: The drug was quantitated in plasma and in urine using HPLC analysis.

[6] = In vitro stability of dival-L-dC in human plasma; assay type: in vitro ADME; conditions: 37° C.
Text: Two additional metabolites (β-L-2′-deoxycytidine-5′-valine ester and β-L-2′-deoxycytidine-valine ester) were also noted.

human plasma proteins = assay type: in vitro ADME; conditions: ex vivo, ultrafiltration
[7] = Bioavailability of the prodrugs of L-dC; conditions: oral administration to monkeys
[8] = Solubility study in water (HPLC calibration); conditions: listed as 3′,5′-divalinyl ester hydrochloride of β-L-dC, hydrochloride
[9] = during the log P experiment in phosphate buffer

## CC(C)[C@H](N)C(=O)OC[C@@H]1O[C@H](n2ccc(N)nc2=O)C[C@H]1OC(=O)[C@@H](N)C(C)C [3′5′-dival-L-dC, 3,5′-L-Valine ester of 2′-deoxy-β-L-cytidine hydrochloride]
[1]; [9]
  conversion of the divaline ester detected in the aqueous phase: 50%
  conversion of the divaline ester detected in the organic phase: 14%
[1]; octanol-1 / 0.02 M phosphate buffer pH 7.2
  log P (octanol/water): −0.86
[2]
  P′ (B/A′): 1.80 × 10^−3 and 1.77 × 10^−3
[3]
  stability in words: fully stable
[4]; Oral (10 mg/kg dival-L-dC)
  Cmax of val-L-dC (unchanged prodrug): Not detected
[4]; dival-L-dC 10 mg/kg IV
  L-dC as share of drug excreted in the urine: ~93%
  administered dose excreted in urine within 2 hours: 58±3%
  renal excretion of L-dU, share of total recovered dose: approximately 2.5%
  renal excretion of β-L-2′-deoxycytidine-5′-valine ester, share of total recovered dose: ~3.7%
  β-L-2′-deoxycytidine-5′-valine ester in plasma at 15 minutes: 3.23 µM
  β-L-2′-deoxycytidine-5′-valine ester in plasma by 2 hours: 0.08 µM
[4]; dival-L-dC 10 mg/kg IV, 1 of 3 animals
  dival-L-dC in plasma at 30 minutes: 0.36 µM
[4]; dival-L-dC 10 mg/kg IV, one of three animals at 2 hours
  dival-L-dC in urine, share of the recovered dose: approximately 0.15%
[4]; dival-L-dC 10 mg/kg oral
  L-dC as share of drug excreted in the urine: ~95%
  L-dC as share of plasma drug levels at Cmax: > 99%
  administered oral dose recovered in urine after 72 hours: 39±8%
  administered oral dose recovered in urine within 4 hours: ~31±8%
  renal excretion of L-dU, share of total recovered dose: approximately 2.5%
  renal excretion of β-L-2′-deoxycytidine-5′-valine ester, share of total recovered dose: ~0.2%
[4]; dival-L-dC 10 mg/kg oral, one animal
  L-dU concentration in plasma at 8 hours: 0.39 µM
[5]
  L-dC as share of drug excreted in the urine: ~89%
  administered oral dose recovered in urine after 72 hours: 31%
  administered oral dose recovered in urine within 8 hours: Approximately 26%
  renal excretion of L-dU, share of the recovered dose: approximately 10%
[5]; detected in only one animal
  dival-L-dC in plasma at 15 minutes post-dose: 0.35 µM
[6]
  in vitro half-life in human plasma: approximately 39 min
Human plasma proteins
  binding to human plasma proteins: 13.3%
[7]
  share of absorbed ester converted to L-dC: more than 99%
  share of the oral dose absorbed: approximately 73%
[8]
  Solubility (mol/L): more than 2.5 mol/L
